Where two headings read alike, the source gives them in different places.
Tests used:
RKO = assay: cells; format: cell-based
Colo320 = assay: cells; format: cell-based
HeLa cells = assay: cells; format: cell-based
[1] = tested on: HCT116 cells treated with a GSK3β inhibitor; assay: cells; format: cell-based; settings: for IC50/EC50, GSK3b inh pretreated_Viability ATP HCT116 (assay number 26): GSK3b inh pretreated
SW480 = assay: cells; format: cell-based
HCT116 = assay: cells; format: cell-based
HT-29 = assay: cells; format: cell-based
[2] = tested on: ECFC/ADSC co-culture cell nuclei number
[3] = tested on: endothelial tube formation in co-cultures of ECFCs and ADSCs treated with VEGF; assay: cells; format: cell-based, human
SNU-C1 = assay: cells; format: cell-based
DLD-1 = assay: cells; format: cell-based
INS-1E cells = assay: cells; format: cell-based, rat; settings: 5 mM glucose; for 5mMGluc_INS1E SecretionMod IC50/EC50: assay number 8
[4] = assay number 26, GSK3b inhibitor pretreated
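For 5mMGluc INS1E SecretionMod IC50/EC50 in this document: secreted insulin quantified by homogeneous immunoassay.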
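For IC50/EC50, 5mMGluc INS1E SecretionMod (assay number 8) in this document: secreted insulin quantified by homogeneous immunoassay.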

## OC[C@H]1O[C@@H](n2cnc3c(=S)nc[nH]c32)[C@H](O)[C@@H]1O [NCGC00096122-05]
RKO; basal
  IC50/EC50, Basal_Viability ATP RKO (assay number 29): 0.01437 µM
Colo320; basal
  IC50/EC50, Basal_Viability ATP Colo 320 (assay number 27): 1.064 µM
HeLa cells; 2N
  IC50/EC50, Hela CellCycMod PI 2N (assay number 14): > 10 µM
HeLa cells; 4N
  IC50/EC50, Hela CellCycMod PI 4N (assay number 16): > 10 µM
HeLa cells
  IC50/EC50, Hela CellCycMod PI Cell Number (assay number 18): > 10 µM
  IC50/EC50, Hela CellCycMod PI S Phase (assay number 15): > 10 µM
HeLa cells; MI
  IC50/EC50, Hela CellCycMod PI MI (assay number 17): > 10 µM
[1]
  IC50/EC50, GSK3b inh pretreated_Viability ATP HCT116 (assay number 26): 0.5044 µM
SW480; basal
  IC50/EC50, Basal_Viability ATP SW480 (assay number 24): 0.02867 µM
HCT116; basal
  IC50/EC50, Basal_Viability ATP HCT116 (assay number 25): 0.02858 µM
HT-29; basal
  IC50/EC50, Basal_Viability ATP HT-29 (assay number 28): 0.1181 µM
[2]
  IC50/EC50, VEGF_ADSC\ECFC Angio Hoechst NucArea (assay number 3): > 10 µM
[3]
  IC50/EC50, VEGF_ADSC\ECFC Angio CD31 TubeArea (assay number 2): 1.4206 µM
SNU-C1; basal
  IC50/EC50, Basal_Viability ATP SNU-C1 (assay number 30): 2.185 µM
DLD-1; basal
  IC50/EC50, Basal_Viability ATP DLD-1 (assay number 23): 0.06302 µM

## C[C@@H](CN(C)C)CN1c2ccccc2Sc2ccccc21.C[C@@H](CN(C)C)CN1c2ccccc2Sc2ccccc21.O=C(O)C(O)C(O)C(=O)O [NCGC00178737-05]
INS-1E cells
  IC50/EC50, 5mMGluc_INS1E SecretionMod (assay number 8): > 33.33 µM

## O=[N+]([O-])c1ccc(Oc2ccc(N=C=S)cc2)cc1 [NCGC00182049-02]
RKO; assay number 29, basal
  Basal_Viability ATP RKO IC50/EC50: 2.341 µM
Colo320; assay number 27, basal
  Basal_Viability ATP Colo 320 IC50/EC50: 1.465 µM
HeLa cells; assay number 14, 2N
  Hela CellCycMod PI 2N IC50/EC50: > 10 µM
HeLa cells; assay number 15, S phase
  Hela CellCycMod PI S Phase IC50/EC50: > 10 µM
HeLa cells; assay number 16, 4N
  Hela CellCycMod PI 4N IC50/EC50: > 10 µM
HeLa cells; assay number 17, MI
  Hela CellCycMod PI MI IC50/EC50: > 10 µM
HeLa cells; assay number 18, cell number
  Hela CellCycMod PI Cell Number IC50/EC50: > 10 µM
[1]; [4]
  GSK3b inh pretreated_Viability ATP HCT116 IC50/EC50: 1.472 µM
SW480; assay number 24, basal
  Basal_Viability ATP SW480 IC50/EC50: 1.634 µM
HCT116; assay number 25, basal
  Basal_Viability ATP HCT116 IC50/EC50: 2.772 µM
HT-29; assay number 28, basal
  Basal_Viability ATP HT-29 IC50/EC50: 1.0654 µM
[2]
  VEGF_ADSC\ECFC Angio Hoechst NucArea IC50/EC50: > 10 µM
[3]
  VEGF_ADSC\ECFC Angio CD31 TubeArea IC50/EC50: 3.7244 µM
SNU-C1; assay number 30, basal
  Basal_Viability ATP SNU-C1 IC50/EC50: 4.3298 µM
DLD-1; assay number 23, basal
  Basal_Viability ATP DLD-1 IC50/EC50: 2.102 µM

## CN1CCN(CCC(=O)N2c3ccccc3Sc3ccc(C(F)(F)F)cc32)CC1 [NCGC00160483-02]
INS-1E cells
  5mMGluc_INS1E SecretionMod IC50/EC50: > 11.11 µM

## CN1C(=O)CC[C@H]1c1cccnc1 [NCGC00093739-13]
INS-1E cells
  5mMGluc_INS1E SecretionMod IC50/EC50: > 33.33 µM

## CN(C)CC/C=C1\c2ccccc2Sc2ccc(Cl)cc21 [NCGC00013683-06]
INS-1E cells
  5mMGluc_INS1E SecretionMod IC50/EC50: > 33.33 µM

## CCCCN(CCCC)C(C(N)=O)c1ccc(OC)cc1 (centres unmarked) [NCGC00261978-01]
INS-1E cells
  5mMGluc_INS1E SecretionMod IC50/EC50: > 33.33 µM

## Cc1ccc(-n2nc(C(C)(C)C)cc2NC(=O)Nc2ccc(OCCN3CCOCC3)c3ccccc23)cc1 [NCGC00241104-02]
INS-1E cells
  5mMGluc_INS1E SecretionMod IC50/EC50: > 33.33 µM

## O=C(CCN1CCN2CCCC2C1)N1c2ccccc2Sc2ccc(Cl)cc21 (centres unmarked) [NCGC00164539-02]
INS-1E cells
  5mMGluc_INS1E SecretionMod IC50/EC50: 16.7552 µM

## Cl.O[C@@H](CNC[C@H](O)[C@H]1CCc2cc(F)ccc2O1)[C@@H]1CCc2cc(F)ccc2O1 [NCGC00263579-01]
RKO; assay number 29
  Basal_Viability ATP RKO IC50/EC50: 3.2799 µM
Colo320; assay number 27
  Basal_Viability ATP Colo 320 IC50/EC50: > 20 µM
HeLa cells; assay number 14, 2N
  Hela CellCycMod PI 2N IC50/EC50: > 10 µM
HeLa cells; assay number 15, S phase
  Hela CellCycMod PI S Phase IC50/EC50: > 10 µM
HeLa cells; assay number 16, 4N
  Hela CellCycMod PI 4N IC50/EC50: > 10 µM
HeLa cells; assay number 17, MI
  Hela CellCycMod PI MI IC50/EC50: > 10 µM
HeLa cells; assay number 18, cell number
  Hela CellCycMod PI Cell Number IC50/EC50: 5.565 µM
[1]; [4]
  GSK3b inh pretreated_Viability ATP HCT116 IC50/EC50: 2.3971 µM
SW480; assay number 24
  Basal_Viability ATP SW480 IC50/EC50: 3.6015 µM
HCT116; assay number 25, basal
  Basal_Viability ATP HCT116 IC50/EC50: 6.4812 µM
HT-29; assay number 28
  Basal_Viability ATP HT-29 IC50/EC50: 4.5046 µM
[2]
  VEGF_ADSC\ECFC Angio Hoechst NucArea IC50/EC50: > 10 µM
[3]
  VEGF_ADSC\ECFC Angio CD31 TubeArea IC50/EC50: > 10 µM
SNU-C1; assay number 30
  Basal_Viability ATP SNU-C1 IC50/EC50: 5.0932 µM
DLD-1; assay number 23
  Basal_Viability ATP DLD-1 IC50/EC50: 15.2632 µM

## CN(C)CCOC(C)(c1ccccc1)c1ccccn1.O=C(O)CCC(=O)O (centres unmarked) [NCGC00021147-11]
INS-1E cells
  5mMGluc_INS1E SecretionMod IC50/EC50: > 33.33 µM

## Cc1cc(-n2nc3ccc(Cl)cc3n2)c(O)c(C(C)(C)C)c1 [NCGC00166260-03]
INS-1E cells
  5mMGluc_INS1E SecretionMod IC50/EC50: > 33.33 µM

## CC(=O)c1ccc2c(c1)N(CCCN(C)C)c1ccccc1S2 [NCGC00016634-04]
INS-1E cells
  5mMGluc_INS1E SecretionMod IC50/EC50: 11.3835 µM

## COc1ccc(CN(CCN(C)C)c2ccccn2)cc1 [NCGC00015822-15]
INS-1E cells
  IC50/EC50, 5mMGluc_INS1E SecretionMod (assay number 8): 15.3614 µM

## Cc1cc(N)c2ccccc2[n+]1CCCCCCCCCC[n+]1c(C)cc(N)c2ccccc21 [NCGC00015339-07]
RKO; basal
  IC50/EC50, Basal_Viability ATP RKO (assay number 29): 2.4541 µM
Colo320; basal
  IC50/EC50, Basal_Viability ATP Colo 320 (assay number 27): 15.8701 µM
HeLa cells; 2N
  IC50/EC50, Hela CellCycMod PI 2N (assay number 14): > 10 µM
HeLa cells; 4N
  IC50/EC50, Hela CellCycMod PI 4N (assay number 16): > 10 µM
HeLa cells
  IC50/EC50, Hela CellCycMod PI Cell Number (assay number 18): > 10 µM
  IC50/EC50, Hela CellCycMod PI S Phase (assay number 15): > 10 µM
HeLa cells; MI
  IC50/EC50, Hela CellCycMod PI MI (assay number 17): > 10 µM
[1]
  IC50/EC50, GSK3b inh pretreated_Viability ATP HCT116 (assay number 26): > 20 µM
SW480; basal
  IC50/EC50, Basal_Viability ATP SW480 (assay number 24): 3.8338 µM
HCT116; basal
  IC50/EC50, Basal_Viability ATP HCT116 (assay number 25): > 20 µM
HT-29; basal
  IC50/EC50, Basal_Viability ATP HT-29 (assay number 28): > 20 µM
[2]
  IC50/EC50, VEGF_ADSC\ECFC Angio Hoechst NucArea (assay number 3): > 10 µM
[3]
  IC50/EC50, VEGF_ADSC\ECFC Angio CD31 TubeArea (assay number 2): > 10 µM
SNU-C1; basal
  IC50/EC50, Basal_Viability ATP SNU-C1 (assay number 30): 1.2926 µM
DLD-1; basal
  IC50/EC50, Basal_Viability ATP DLD-1 (assay number 23): 5.7172 µM

## CO[C@@]12[C@H](COC(N)=O)C3=C(C(=O)C(C)=C(N)C3=O)N1C[C@@H]1N[C@@H]12 [NCGC00163468-05]
RKO
  Basal_Viability ATP RKO IC50/EC50: 0.9953 µM
Colo320
  Basal_Viability ATP Colo 320 IC50/EC50: 12.5546 µM
HeLa cells
  Hela CellCycMod PI 2N IC50/EC50: 0.0133 µM
  Hela CellCycMod PI 4N IC50/EC50: > 10 µM
  Hela CellCycMod PI Cell Number IC50/EC50: 0.07733 µM
  Hela CellCycMod PI MI IC50/EC50: > 10 µM
  Hela CellCycMod PI S Phase IC50/EC50: 0.1428 µM
[1]
  GSK3b inh pretreated_Viability ATP HCT116 IC50/EC50: > 20 µM
SW480
  Basal_Viability ATP SW480 IC50/EC50: 12.0548 µM
HCT116
  Basal_Viability ATP HCT116 IC50/EC50: 13.6261 µM
HT-29
  Basal_Viability ATP HT-29 IC50/EC50: 2.5705 µM
[2]
  VEGF_ADSC\ECFC Angio Hoechst NucArea IC50/EC50: 5.961 µM
[3]
  VEGF_ADSC\ECFC Angio CD31 TubeArea IC50/EC50: 0.1019 µM
SNU-C1
  Basal_Viability ATP SNU-C1 IC50/EC50: 8.1272 µM
DLD-1
  Basal_Viability ATP DLD-1 IC50/EC50: 5.6318 µM
